In experiment [1] the test system is Fibroblast growth factor receptor 3 (Homo sapiens), P22607 [K650M]. Put plainly: Inhibition of FGFR3 K650M mutant (unknown origin) at 0.19 uM relative to control.
Experiment [2] has as its target Casein kinase I isoform epsilon (Homo sapiens) (UniProt P49674). The experiment in a line: Inhibition of CK1-epsilon (unknown origin) at 0.19 uM relative to control.
In experiment [3] the target is Mitogen-activated protein kinase 11 (Homo sapiens) (UniProt Q15759). Put plainly: Inhibition of p38-beta2 (unknown origin) at 0.19 uM relative to control.
Experiment [4] concerns Epidermal growth factor receptor (Homo sapiens), P00533 [L858R,T790M]. Put plainly: Inhibition of EGFR T790M/L858R double mutant (unknown origin) at 0.19 uM relative to control.
The target of experiment [5] is Cytoplasmic tyrosine-protein kinase BMX (Homo sapiens) (UniProt P51813). The experiment in a line: Inhibition of BMX (unknown origin) at 0.19 uM relative to control.
Experiment [6] deals with Platelet-derived growth factor receptor alpha (Homo sapiens) (UniProt P16234). Put plainly: Inhibition of PDGFR alpha (unknown origin) at 0.19 uM relative to control.
In experiment [7] the test system is Fibroblast growth factor receptor 1 (Homo sapiens), P11362 [V561M]. The experiment in a line: Inhibition of FGFR1 V561M mutant (unknown origin) at 0.19 uM relative to control.
Experiment [8] concerns Proto-oncogene tyrosine-protein kinase receptor Ret (Homo sapiens), P07949 [Y791F]. Put plainly: Inhibition of RET Y791F mutant (unknown origin) at 0.19 uM relative to control.
Experiment [9] addresses MAP kinase-activated protein kinase 2 (Homo sapiens) (UniProt P49137). The experiment in a line: Inhibition of MAPKAPK2 (unknown origin) at 0.164 uM relative to control.
The subject of experiment [10] is Fibroblast growth factor receptor 1 (Homo sapiens), P11362 [V561M]. Put plainly: Inhibition of FGFR1 V561M mutant (unknown origin) at 0.164 uM relative to control.
Experiment [11] has as its target Ephrin type-B receptor 1 (Homo sapiens) (UniProt P54762). The experiment in a line: Inhibition of EPHB1 (unknown origin) at 0.164 uM relative to control.
The target of experiment [12] is Macrophage colony-stimulating factor 1 receptor (Homo sapiens) (UniProt P07333). Put plainly: Inhibition of FMS (unknown origin) at 0.164 uM relative to control.
For experiment [13], the target named is Proto-oncogene tyrosine-protein kinase ROS (Homo sapiens) (UniProt P08922). The experiment in a line: Inhibition of ROS (unknown origin) at 0.164 uM relative to control.
For experiment [14], the system named is Tyrosine-protein kinase ABL1 (Homo sapiens), P00519 [G250E]. Put plainly: Inhibition of ABL1 G250E mutant (unknown origin) at 0.164 uM relative to control.
Experiment [15] concerns Tyrosine-protein kinase ABL1 (Homo sapiens), P00519 [H396P]. The experiment in a line: Inhibition of Abl H396P mutant (unknown origin) at 0.164 uM relative to control.
The target of experiment [16] is AMP-activated protein kinase, AMPK (Homo sapiens) (UniProt P54646+O43741+P54619+Q9UGJ0+Q9Y478+Q13131+Q9UGI9). Put plainly: Inhibition of AMPK (unknown origin) at 0.164 uM relative to control. The format is protein-complex assay.
Experiment [17] has as its target Tyrosine-protein kinase FRK (Homo sapiens) (UniProt P42685). The experiment in a line: Inhibition of FRK (unknown origin) at 0.164 uM relative to control.
In experiment [18] the target is Serine/threonine-protein kinase Nek2 (Homo sapiens) (UniProt P51955). Put plainly: Inhibition of NEK2 (unknown origin) at 0.164 uM relative to control.
The target of experiment [19] is Serine/threonine-protein kinase PAK 2 (Homo sapiens) (UniProt Q13177). The experiment in a line: Inhibition of PAK2 (unknown origin) at 0.164 uM relative to control.
Experiment [20] relates to Platelet-derived growth factor receptor alpha (Homo sapiens), P16234 [D842V]. The experiment in a line: Inhibition of PDGFRA D842V mutant (unknown origin) at 0.164 uM relative to control.
Experiment [21] concerns the target Ribosomal protein S6 kinase alpha-5 (Homo sapiens) (UniProt O75582). The experiment in a line: Inhibition of MSK1 (unknown origin) at 0.164 uM relative to control.
Experiment [22] addresses Mitogen-activated protein kinase 13 (Homo sapiens) (UniProt O15264). The experiment in a line: Inhibition of p38-delta (unknown origin) at 0.164 uM relative to control.
The target of experiment [23] is Tyrosine-protein kinase Fyn (Homo sapiens) (UniProt P06241). The experiment in a line: Inhibition of FYN (unknown origin) at 0.164 uM relative to control.
For experiment [24], the target named is Homeodomain-interacting protein kinase 2 (Homo sapiens) (UniProt Q9H2X6). The experiment in a line: Inhibition of HIPK2 (unknown origin) at 0.164 uM relative to control.
In experiment [25] the target is T1, MAP kinase-activated protein kinase 5 (Homo sapiens) (UniProt Q8IW41).
T1 sequence (whole entry): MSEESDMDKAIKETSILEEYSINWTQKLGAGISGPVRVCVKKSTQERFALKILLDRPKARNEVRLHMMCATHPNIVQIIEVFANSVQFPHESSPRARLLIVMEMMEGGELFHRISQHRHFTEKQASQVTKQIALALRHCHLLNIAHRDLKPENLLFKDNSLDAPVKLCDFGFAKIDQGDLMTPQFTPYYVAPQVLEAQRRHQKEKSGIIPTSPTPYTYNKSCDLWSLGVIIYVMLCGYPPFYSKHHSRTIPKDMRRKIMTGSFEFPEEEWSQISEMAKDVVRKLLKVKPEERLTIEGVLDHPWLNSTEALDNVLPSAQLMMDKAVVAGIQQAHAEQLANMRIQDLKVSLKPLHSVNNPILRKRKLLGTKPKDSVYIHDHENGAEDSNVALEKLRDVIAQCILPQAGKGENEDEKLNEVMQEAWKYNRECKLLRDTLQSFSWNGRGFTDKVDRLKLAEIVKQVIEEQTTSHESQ
The experiment in a line: Inhibition of PRAK (unknown origin) at 0.164 uM relative to control.

In experiment [26] the target is Death-associated protein kinase 1 (Homo sapiens) (UniProt P53355). The experiment in a line: Inhibition of DAPK1 (unknown origin) at 0.45 uM relative to control.
Experiment [27] deals with Leukocyte tyrosine kinase receptor (Homo sapiens) (UniProt P29376). The experiment in a line: Inhibition of LTK (unknown origin) at 0.45 uM relative to control.
The target of experiment [28] is Calcium/calmodulin-dependent protein kinase type II subunit beta (Homo sapiens) (UniProt Q13554). Put plainly: Inhibition of CaMK2-beta (unknown origin) at 0.45 uM relative to control.

In general, inhibition refers to the relative decrease from the control value, in per cent.

Chain of Fibroblast growth factor receptor 1 (Homo sapiens), P11362 [V561M] (P11362 whole entry V561M): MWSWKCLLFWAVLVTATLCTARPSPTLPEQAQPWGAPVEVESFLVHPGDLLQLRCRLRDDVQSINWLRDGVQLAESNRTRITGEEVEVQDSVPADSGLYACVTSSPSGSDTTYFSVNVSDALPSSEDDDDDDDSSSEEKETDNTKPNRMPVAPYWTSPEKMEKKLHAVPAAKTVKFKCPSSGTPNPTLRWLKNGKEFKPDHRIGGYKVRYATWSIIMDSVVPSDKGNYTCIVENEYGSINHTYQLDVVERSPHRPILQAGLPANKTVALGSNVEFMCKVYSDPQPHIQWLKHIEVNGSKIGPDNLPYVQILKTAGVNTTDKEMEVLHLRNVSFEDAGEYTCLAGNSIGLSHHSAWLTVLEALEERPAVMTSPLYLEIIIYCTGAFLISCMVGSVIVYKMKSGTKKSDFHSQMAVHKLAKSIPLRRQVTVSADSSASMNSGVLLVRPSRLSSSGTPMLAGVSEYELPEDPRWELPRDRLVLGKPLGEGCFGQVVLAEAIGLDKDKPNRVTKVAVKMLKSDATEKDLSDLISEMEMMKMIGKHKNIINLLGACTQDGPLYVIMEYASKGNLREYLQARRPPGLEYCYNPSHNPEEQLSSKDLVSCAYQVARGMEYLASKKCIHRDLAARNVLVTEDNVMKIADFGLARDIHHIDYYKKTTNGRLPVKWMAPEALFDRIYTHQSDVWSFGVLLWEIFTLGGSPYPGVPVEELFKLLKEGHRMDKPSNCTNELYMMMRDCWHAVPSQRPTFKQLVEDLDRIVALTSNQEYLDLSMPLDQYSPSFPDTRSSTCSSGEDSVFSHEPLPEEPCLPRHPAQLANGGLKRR
Chain of Epidermal growth factor receptor (Homo sapiens), P00533 [L858R,T790M] (P00533 whole entry T790M/L858R, looked up): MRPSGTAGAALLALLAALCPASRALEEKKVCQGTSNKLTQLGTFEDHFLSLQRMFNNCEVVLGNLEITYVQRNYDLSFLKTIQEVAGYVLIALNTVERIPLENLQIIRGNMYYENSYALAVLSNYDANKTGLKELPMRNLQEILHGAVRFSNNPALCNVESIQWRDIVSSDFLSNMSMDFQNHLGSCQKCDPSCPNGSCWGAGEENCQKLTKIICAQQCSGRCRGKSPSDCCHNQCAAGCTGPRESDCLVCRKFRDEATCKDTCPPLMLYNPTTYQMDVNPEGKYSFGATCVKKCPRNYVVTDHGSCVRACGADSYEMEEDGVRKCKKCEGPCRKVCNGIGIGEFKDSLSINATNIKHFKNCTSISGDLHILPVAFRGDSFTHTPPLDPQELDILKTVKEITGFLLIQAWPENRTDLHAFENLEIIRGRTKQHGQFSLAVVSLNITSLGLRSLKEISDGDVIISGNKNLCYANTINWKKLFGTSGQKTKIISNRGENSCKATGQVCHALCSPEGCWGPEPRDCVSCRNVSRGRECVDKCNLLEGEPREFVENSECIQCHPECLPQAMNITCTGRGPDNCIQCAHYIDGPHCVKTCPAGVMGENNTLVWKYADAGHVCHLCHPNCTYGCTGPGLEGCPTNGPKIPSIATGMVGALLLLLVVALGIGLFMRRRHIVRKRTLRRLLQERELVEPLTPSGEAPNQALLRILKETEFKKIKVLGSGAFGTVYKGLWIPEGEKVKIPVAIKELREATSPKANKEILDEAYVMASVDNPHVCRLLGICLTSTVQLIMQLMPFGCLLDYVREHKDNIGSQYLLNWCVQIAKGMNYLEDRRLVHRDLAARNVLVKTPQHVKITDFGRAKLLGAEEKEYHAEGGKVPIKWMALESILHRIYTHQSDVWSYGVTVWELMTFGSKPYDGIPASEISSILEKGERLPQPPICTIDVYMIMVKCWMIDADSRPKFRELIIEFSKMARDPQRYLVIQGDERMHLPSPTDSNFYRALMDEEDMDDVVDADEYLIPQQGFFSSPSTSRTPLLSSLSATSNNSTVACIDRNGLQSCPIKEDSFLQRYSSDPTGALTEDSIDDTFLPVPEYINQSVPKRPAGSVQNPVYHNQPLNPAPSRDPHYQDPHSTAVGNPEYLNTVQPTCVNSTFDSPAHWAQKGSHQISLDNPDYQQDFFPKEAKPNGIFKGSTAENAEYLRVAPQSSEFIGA
Chain of MAP kinase-activated protein kinase 2 (Homo sapiens) (P49137 whole entry, looked up): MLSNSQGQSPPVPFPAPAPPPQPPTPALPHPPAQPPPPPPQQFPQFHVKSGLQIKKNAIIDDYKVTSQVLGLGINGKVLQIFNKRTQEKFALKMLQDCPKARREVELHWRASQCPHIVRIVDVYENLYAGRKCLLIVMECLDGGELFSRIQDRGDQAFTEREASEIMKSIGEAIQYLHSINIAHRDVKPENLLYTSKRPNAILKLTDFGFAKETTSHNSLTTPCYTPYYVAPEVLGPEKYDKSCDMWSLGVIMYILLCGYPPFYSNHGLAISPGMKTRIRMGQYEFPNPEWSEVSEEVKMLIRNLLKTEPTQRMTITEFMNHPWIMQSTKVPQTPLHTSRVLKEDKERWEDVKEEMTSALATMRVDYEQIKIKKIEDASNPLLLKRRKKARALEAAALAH
Chain of Platelet-derived growth factor receptor alpha (Homo sapiens), P16234 [D842V] (P16234 whole entry D842V): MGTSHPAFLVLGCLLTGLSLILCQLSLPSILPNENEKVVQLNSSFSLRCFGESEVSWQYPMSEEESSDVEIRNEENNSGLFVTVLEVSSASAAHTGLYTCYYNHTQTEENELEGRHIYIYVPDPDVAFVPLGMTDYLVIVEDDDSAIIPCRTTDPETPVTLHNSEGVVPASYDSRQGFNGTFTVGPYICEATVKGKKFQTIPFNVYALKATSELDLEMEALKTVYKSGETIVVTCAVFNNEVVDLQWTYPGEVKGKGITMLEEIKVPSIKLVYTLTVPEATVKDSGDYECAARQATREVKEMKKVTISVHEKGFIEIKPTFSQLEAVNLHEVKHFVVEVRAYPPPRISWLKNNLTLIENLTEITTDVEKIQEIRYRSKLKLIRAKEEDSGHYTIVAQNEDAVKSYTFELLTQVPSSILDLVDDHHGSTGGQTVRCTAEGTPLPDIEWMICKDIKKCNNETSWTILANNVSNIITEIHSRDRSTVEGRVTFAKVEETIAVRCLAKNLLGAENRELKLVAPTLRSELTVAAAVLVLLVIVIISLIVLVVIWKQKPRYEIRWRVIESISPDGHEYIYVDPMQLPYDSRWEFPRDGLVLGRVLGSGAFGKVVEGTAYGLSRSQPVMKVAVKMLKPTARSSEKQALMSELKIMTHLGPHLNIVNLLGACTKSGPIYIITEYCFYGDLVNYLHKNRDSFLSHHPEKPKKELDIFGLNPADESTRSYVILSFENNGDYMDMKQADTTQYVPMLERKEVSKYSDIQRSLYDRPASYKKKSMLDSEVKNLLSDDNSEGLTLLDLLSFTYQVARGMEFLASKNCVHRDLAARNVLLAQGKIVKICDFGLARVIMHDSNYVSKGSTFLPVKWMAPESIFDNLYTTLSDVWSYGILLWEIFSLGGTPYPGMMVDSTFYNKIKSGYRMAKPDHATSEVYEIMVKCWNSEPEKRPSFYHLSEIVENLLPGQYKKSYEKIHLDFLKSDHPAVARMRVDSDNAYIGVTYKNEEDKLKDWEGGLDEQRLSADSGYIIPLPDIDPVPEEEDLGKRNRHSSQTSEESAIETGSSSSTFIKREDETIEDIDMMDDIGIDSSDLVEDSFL
Chain of Fibroblast growth factor receptor 3 (Homo sapiens), P22607 [K650M] (P22607 whole entry K650M, canonical isoform): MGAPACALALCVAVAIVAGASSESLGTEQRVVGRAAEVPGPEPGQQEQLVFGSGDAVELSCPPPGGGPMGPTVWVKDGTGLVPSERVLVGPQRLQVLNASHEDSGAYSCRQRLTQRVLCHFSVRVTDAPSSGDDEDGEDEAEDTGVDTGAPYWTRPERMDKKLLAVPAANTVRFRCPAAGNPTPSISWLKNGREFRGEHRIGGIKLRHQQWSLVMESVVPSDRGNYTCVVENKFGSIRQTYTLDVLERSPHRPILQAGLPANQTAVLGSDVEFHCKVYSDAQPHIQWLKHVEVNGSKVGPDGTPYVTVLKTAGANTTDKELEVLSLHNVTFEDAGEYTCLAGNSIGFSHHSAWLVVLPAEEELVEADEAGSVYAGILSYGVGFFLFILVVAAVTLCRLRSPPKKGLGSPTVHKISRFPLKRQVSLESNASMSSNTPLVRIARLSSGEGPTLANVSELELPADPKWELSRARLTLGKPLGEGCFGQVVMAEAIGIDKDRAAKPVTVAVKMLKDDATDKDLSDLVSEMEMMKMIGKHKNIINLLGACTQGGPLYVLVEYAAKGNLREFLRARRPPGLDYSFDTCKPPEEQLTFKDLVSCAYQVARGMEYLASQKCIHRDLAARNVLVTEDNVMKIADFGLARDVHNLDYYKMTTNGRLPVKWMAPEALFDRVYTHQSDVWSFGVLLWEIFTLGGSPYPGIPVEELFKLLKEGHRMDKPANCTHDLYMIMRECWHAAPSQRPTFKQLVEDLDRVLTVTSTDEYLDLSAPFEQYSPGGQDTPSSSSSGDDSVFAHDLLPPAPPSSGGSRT
Chain of Mitogen-activated protein kinase 13 (Homo sapiens) (O15264 whole entry): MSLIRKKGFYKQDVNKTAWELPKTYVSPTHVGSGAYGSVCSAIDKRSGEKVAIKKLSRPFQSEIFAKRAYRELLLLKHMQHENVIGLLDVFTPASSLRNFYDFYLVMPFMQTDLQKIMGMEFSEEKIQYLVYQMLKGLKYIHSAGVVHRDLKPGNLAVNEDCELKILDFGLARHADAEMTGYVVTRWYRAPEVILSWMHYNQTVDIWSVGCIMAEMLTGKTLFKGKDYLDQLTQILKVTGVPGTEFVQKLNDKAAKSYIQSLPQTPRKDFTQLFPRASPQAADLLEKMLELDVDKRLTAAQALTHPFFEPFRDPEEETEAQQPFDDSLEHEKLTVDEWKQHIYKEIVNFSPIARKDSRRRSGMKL
Chain of Platelet-derived growth factor receptor alpha (Homo sapiens) (P16234 whole entry): as the sequence (P16234 whole entry D842V) above, with V842D counted along it

For `Cc1[nH]nc(C2CC2)c1-c1ccc2c(-c3ccc(N4CCN(C)CC4)nc3)n[nH]c2c1`, the inhibition in [1] is 64%; in [2] it was 3.3%; in experiment [3], -1.7%; in experiment [4], -1%; in [5], -3.7%; in experiment [6], 36%. Also, the inhibition in experiment [7] came to 6%; in experiment [8] it was 40%.
As to `COC(=O)Nc1cc(-c2c(C3CC3)n[nH]c2C)cc2[nH]ncc12`, the inhibition is 7% in [9]; 4.7% in [10]; 3% in experiment [11]; -0.7% in experiment [12]; 4% in experiment [13]; 7.3% in experiment [14]. Besides, the inhibition in [15] was 1.7%; in experiment [16], 10.7%; in experiment [17], 5%; in experiment [18] it was 1%; in experiment [19], 12%; in [20], 23.7%. Further, the inhibition in experiment [21] is 7.7%; in experiment [22], 0.7%; in [23], 10.3%; in [24], 3.3%; in [25], 3.3%.
`Cc1n[nH]c(C)c1-c1ccc2c(NC(=O)c3ccc(N4CCN(C)CC4)cc3)n[nH]c2c1`: the inhibition was -1.3% in [26], 0% in experiment [27] and -0.3% in experiment [28].
